Measured values reported in US5807981A (FibroGen Inc., priority 1995, dated 1998).
Where two headings read alike, the source gives them in different places. Starred links: 1 amine or outer side, 2 acyl side, 3 side chain; linkers in the order of their positions; H or OH if unused. Non-standard residues stand in square brackets, D forms with d. Residues, ends and D or L forms follow the SMILES beside them. *: point of attachment. Sta = CC(C)C[C@H](N)[C@@H](O)CC(=O)O; Isovaleryl = CC(C)CC(=O)*; CO = O=C([*:1])[*:2]

How the values were obtained:
C-proteinase [1] = details: cited from earlier work; for inhibitory at low concentrations / inhibition of C-proteinase activity (in words) / concentrations at which inhibitory: background, prior art
C-proteinase [2] = biological target: T1, C-proteinase (Homo sapiens, UniProt P13497); assay: Cleavage of synthetic procollagen cleavage-site peptides by active C-proteinase; assay type: biochemical; details: for Cleavability: Table 1, cleavability of peptides resembling the C-proteinase cleavage site of procollagen; for cleavability by C-proteinase: truncated and extended peptides compared with original peptide SEQ ID NO:6
T1 sequence (P13497 121-986): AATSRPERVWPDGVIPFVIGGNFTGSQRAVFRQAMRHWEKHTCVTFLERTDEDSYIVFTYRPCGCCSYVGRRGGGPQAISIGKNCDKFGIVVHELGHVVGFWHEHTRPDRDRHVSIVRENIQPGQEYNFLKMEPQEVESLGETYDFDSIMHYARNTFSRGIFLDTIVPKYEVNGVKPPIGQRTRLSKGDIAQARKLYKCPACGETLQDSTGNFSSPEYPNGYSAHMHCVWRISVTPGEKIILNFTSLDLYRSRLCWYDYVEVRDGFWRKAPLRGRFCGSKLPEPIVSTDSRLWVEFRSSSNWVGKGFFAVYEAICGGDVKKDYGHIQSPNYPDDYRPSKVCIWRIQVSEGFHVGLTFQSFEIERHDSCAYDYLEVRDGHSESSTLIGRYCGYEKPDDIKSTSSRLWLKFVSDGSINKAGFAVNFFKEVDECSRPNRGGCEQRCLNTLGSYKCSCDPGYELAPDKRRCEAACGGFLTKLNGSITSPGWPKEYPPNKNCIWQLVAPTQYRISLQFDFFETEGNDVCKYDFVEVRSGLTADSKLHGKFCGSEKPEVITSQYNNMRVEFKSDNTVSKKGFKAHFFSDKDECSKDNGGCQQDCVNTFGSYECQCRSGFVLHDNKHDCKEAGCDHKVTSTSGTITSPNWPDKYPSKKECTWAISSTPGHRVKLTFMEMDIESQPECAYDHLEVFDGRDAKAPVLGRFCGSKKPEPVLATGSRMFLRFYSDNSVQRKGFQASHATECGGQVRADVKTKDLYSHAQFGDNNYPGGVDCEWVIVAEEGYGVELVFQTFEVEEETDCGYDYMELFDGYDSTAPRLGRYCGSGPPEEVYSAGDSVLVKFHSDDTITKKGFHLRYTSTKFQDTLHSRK
From the text: A variety of short peptides comprising five (5) to twelve (12) amino acids was synthesized and tested for cleavage by active C-proteinase.
First, four peptides, each comprising eight (8) amino acids corresponding to the cleavage region of several procollagens were synthesized. See, TABLE 1, SEQ ID NO:3, SEQ ID NO:4, SEQ ID NO:5, and SEQ ID NO:6. All four peptides were examined for cleavability by C-proteinase. […] Indeed, one would expect that recognition of the cleavage site depends on structural requirements which cannot be resembled by only eight (8) amino acids.
Second, a series of peptides was prepared based on the sequence of original peptide SEQ ID NO:6. Specifically, peptides were designed resembling the core of the peptide comprising SEQ ID NO:6, but with truncations of one, two and three amino acids from either side of the cleavage site. A further peptide was synthesized resembling two additional amino acids at both the N-terminus and C-terminus of the original peptide comprising SEQ ID NO:6.
Removing two or more amino acids from either end of the original SEQ ID NO:6 sequence, however, yielded a non-cleavable peptide (SEQ ID NOS:9, 10, 12, 13).

O[C@H](CS)[C@H](O)CS (racemic) [Dithiothreitol]
inhibitory at low concentrations (C-proteinase [1]): inhibitory at low concentrations

[Cd+2] [Cd^2+]
inhibitory at low concentrations (C-proteinase [1]): inhibitory at low concentrations

[Cu+2] [Cu^2+]
inhibitory at low concentrations (C-proteinase [1]): inhibitory at low concentrations

[Cl-].[Na+] [NaCl]
activity relative to that observed with the standard assay concentration of 0.15M (C-proteinase [1]; 0.2M NaCl): 66% | activity relative to that observed with the standard assay concentration of 0.15M (C-proteinase [1]; 0.3M NaCl): 38% | activity relative to that observed with the standard assay concentration of 0.15M (C-proteinase [1]; 0.5M NaCl): 25%

CCCCCCCCCCCCOS(=O)(=O)[O-].[Na+] [SDS]
inhibitory at low concentrations (C-proteinase [1]): inhibitory at low concentrations

CC(=O)N[C@@H](Cc1ccc(O)cc1)C(=O)N[C@@H](Cc1ccc(O)cc1)C(=O)N[C@@H](CCCNC(=N)N)C(=O)N[C@@H](C)C(=O)N[C@@H](CC(=O)O)C(=O)N[C@@H](CC(=O)O)C(=O)N[C@@H](C)C(=O)N[C@@H](CC(N)=O)C(N)=O [SEQ ID NO:3, Ac-YYRA-DDAN-NH2] (Ac-YYRADDAN-NH2)
Cleavability (C-proteinase [2]): slight | cleavability by C-proteinase (C-proteinase [2]): cleaved by C-proteinase

CC(=O)N[C@@H](Cc1ccccc1)C(=O)N[C@@H](Cc1ccc(O)cc1)C(=O)N[C@@H](CCCNC(=N)N)C(=O)N[C@@H](C)C(=O)N[C@@H](CC(=O)O)C(=O)N[C@@H](CCC(N)=O)C(=O)N1CCC[C@H]1C(=O)N[C@@H](CCCNC(=N)N)C(N)=O [SEQ ID NO:4, Ac-FYRA-DQPR-NH2] (Ac-FYRADQPR-NH2)
Cleavability (C-proteinase [2]): slight | cleavability by C-proteinase (C-proteinase [2]): cleaved by C-proteinase

CSCC[C@H](NC(=O)[C@H](Cc1ccc(O)cc1)NC(C)=O)C(=O)N[C@@H](CCCNC(=N)N)C(=O)N[C@@H](C)C(=O)N[C@@H](CC(=O)O)C(=O)N[C@@H](CCC(N)=O)C(=O)N[C@@H](C)C(=O)N[C@@H](C)C(N)=O [SEQ ID NO:5, Ac-YMRA-DQAA-NH2] (Ac-YMRADQAA-NH2)
Cleavability (C-proteinase [2]): slight | cleavability by C-proteinase (C-proteinase [2]): cleaved by C-proteinase

CSCC[C@H](NC(=O)[C@@H]1CCCN1C(=O)[C@H](CCC(=O)O)NC(=O)[C@H](CC(=O)O)NC(=O)CNC(=O)[C@H](Cc1ccc(O)cc1)NC(=O)[C@H](Cc1ccc(O)cc1)NC(=O)[C@@H]1CCCN1C(C)=O)C(N)=O [SEQ ID NO:6, Ac-PYYG-DEPM-NH2] (Ac-PYYGDEPM-NH2)
Cleavability (C-proteinase [2]): excellent | cleavability by C-proteinase (C-proteinase [2]): cleaved much more efficiently than the three others

CSCC[C@H](NC(=O)[C@@H]1CCCN1C(=O)[C@H](CCC(=O)O)NC(=O)[C@H](CC(=O)O)NC(=O)CNC(=O)[C@H](Cc1ccc(O)cc1)NC(=O)[C@H](Cc1ccc(O)cc1)NC(=O)[C@@H]1CCCN1C(=O)[C@H](C)NC(=O)[C@H](Cc1ccccc1)NC(C)=O)C(=O)N[C@@H](CC(=O)O)C(=O)N[C@@H](Cc1ccccc1)C(N)=O [SEQ ID NO:7, Ac-FAPYYG-DEPMDF-NH2] (Ac-FAPYYGDEPMDF-NH2)
Cleavability (C-proteinase [2]): excellent | cleavability by C-proteinase (C-proteinase [2]): did not impact its cleavability

[Zn+2] [Zn^2+]
inhibitory at low concentrations (C-proteinase [1]): inhibitory at low concentrations

CC(C)C[C@@H](N)[C@H](O)C(=O)N[C@H](C(=O)N[C@H](C(=O)N[C@@H](CC(=O)O)C(=O)O)C(C)C)C(C)C [amastatin]
inhibition of C-proteinase activity (in words) (C-proteinase [1]): weak or no effect

N.N.O=S(=O)(O)O [ammonium sulfate]
concentrations at which inhibitory (C-proteinase [1]): 1 to 10 mM

CC(C)[C@H](NC(=O)[C@H](CCCNC(=N)N)NC(=O)N[C@@H](Cc1ccccc1)C(=O)O)C(=O)N[C@H](C=O)CCCNC(=N)N [antipain] ({Phe-CO}-Arg-Val-Arg-aldehyde)
inhibition of C-proteinase activity (in words) (C-proteinase [1]): weak or no effect

N=C(N)NCCC[C@H](N)C(=O)O [arginine]
inhibition of C-proteinase activity (in words) (C-proteinase [1]): inhibited

CC(C)C[C@H](NC(=O)[C@@H](O)[C@H](N)Cc1ccccc1)C(=O)O [bestatin]
inhibition of C-proteinase activity (in words) (C-proteinase [1]): weak or no effect

CC(C)C[C@H](NC(=O)[C@@H](NC(=O)N[C@@H](Cc1ccccc1)C(=O)O)[C@@H]1CCN=C(N)N1)C(=O)N[C@H](C=O)Cc1ccccc1 [chymostatin]
inhibition of C-proteinase activity (in words) (C-proteinase [1]): relatively strong inhibitors

CC(C)C[C@H](NC(=O)N[C@H](C(=O)N[C@@H](CCC(N)=O)C(=O)N[C@@H](C)C=O)[C@@H]1CCNC(=N)N1)C(=O)O [elastinal]
inhibition of C-proteinase activity (in words) (C-proteinase [1]): weak or no effect

CC(=O)N[C@@H](CC(C)C)C(=O)N[C@@H](CC(C)C)C(=O)N[C@H](C=O)CCCNC(=N)N [leupeptin]
inhibition of C-proteinase activity (in words) (C-proteinase [1]): weak or no effect

NCCCC[C@H](N)C(=O)O [lysine]
inhibition of C-proteinase activity (in words) (C-proteinase [1]): inhibited

CC(C)CC(=O)N[C@H](C(=O)N[C@H](C(=O)N[C@@H](CC(C)C)[C@@H](O)CC(=O)N[C@@H](C)C(=O)N[C@@H](CC(C)C)[C@@H](O)CC(=O)O)C(C)C)C(C)C [pepstatin A] (Isovaleryl-VV[Sta]A[Sta]-OH)
inhibition of C-proteinase activity (in words) (C-proteinase [1]): relatively strong inhibitors

CC(C)C[C@H](NP(=O)(O)O[C@@H]1O[C@@H](C)[C@H](O)[C@@H](O)[C@H]1O)C(=O)N[C@@H](Cc1c[nH]c2ccccc12)C(=O)O [phosphoramidon]
inhibition of C-proteinase activity (in words) (C-proteinase [1]): weak or no effect

Tris-HCl [Tris-HCl buffer]
inhibition of C-proteinase activity by buffer (C-proteinase [1]; concentration of 0.2-0.5M): markedly inhibited activity

concanavalin A
inhibitory at low concentrations (C-proteinase [1]): inhibitory at low concentrations

phosphate
concentrations at which inhibitory (C-proteinase [1]): 1 to 10 mM

α2 -Macroglobulin
inhibition of C-proteinase activity (in words) (C-proteinase [1]): at least partially inhibit

B1: ovostatin (protein, UniProt P20740 37-1473, looked up)
Ovostatin: KEPEPQYVLMVPAVLQSDSPSQVCLQFFNLNQTISVRVVLEYDTINTTIFEKNTTTSNGLQCLNFMIPPVTSVSLAFISFTAKGTTFDLKERRSVMIWNMESFVFVQTDKPIYKPGQSVMFRVVALDFNFKPVQEMYPLIAVQDPQNNRIFQWQNVTSEINIVQIEFPLTEEPILGNYKIIVTKKSGERTSHSFLVEEYVLPKFDVTVTAPGSLTVMDSELTVKICAVYTYGQPVEGKVQLSVCRDFDSYGRCKKSPVCQSFTKDLDTDGCLSHILSSKVFELNRIGYKRNLDVKAIVTEKEQVCNLTATQSISITQVMSSLQFENVDHHYRRGIPYFGQIKLVDKDNSPISNKVIQLFVNNKNTHNFTTDINGIAPFSIDTSKIFDPELSLKALYKTSDQCHSEGWIEPSYPDASLSVQRLYSWTSSFVRIEPLWKDMSCGQKRMITVYYILNTEGYEHINIVNFYYVGMAKGKIVLTGEIKVNIQADQNGTFMIPLVVNEKMAPALRLLVYMLHPAKELVADSVRFSIEKCFKNKVQLQFSEKQMLTTSNVSLVIEAAANSFCAVRAVDKSMLLLKSETELSAETIYNLHPIQDLQGYIFNGLNLEDDPQDPCVSSDDIFHKGLYYRPLTSGLGPDVYQFLRDMGMKFFTNSKIRQPTVCTRETVRPPSYFLNAGFTASTHHVKLSAEVAREERGKRHILETIREFFPETWIWDIILINSTGKASVSYTIPDTITEWKASAFCVEELAGFGMSVPATLTAFQPFFVDLTLPYSIIHGEDFLVRANVFNYLNHCIKINVLLLESLDYQAKLISPEDDGCVCAKIRKSYVWNIFPKGTGDVLFSITAETNDDEACEEEALRNIRIDYRDTQIRALLVEPEGIRREETQNFLICMKDDVISQDVAIDLPTNVVEGSPRPSFSVVGDIMGTAIQNVHQLLQMPFGNGEQNMVLFAPNIYVLDYLDKTRQLSEDVKSKTIGYLVSGYQKQLSYKHPDGSYSTFGIRDKEGNTWLTAFVYKSFAEASRFIYIDDNVQAQTLIWLATKQKTDGCFQSTGILVNNAMKGGVENELSLSAYITIALLEAGHSMSHTVIRNAFYCLETASEKNITDIYTQALVAYAFCLAGKAEICESFLRELQKSAKEVDGSKYWEQNQRSAPEKSHLLDHVQSTDVEITSYVLLALLYKPNRSQEDLTKASAIVQWIIRQQNSYGGFASMQDTVVALQALAAYGAATYNSVTQNVIKINSKNTFEKVFTVNNENRLLLQQTPLPQVPGKYSLTVNGTGCVLIQTALRYNIHLPEGAFGFSLSVQTSNASCPRDQPGKFDIVLISSYTGKRSSSNMVIIDVKMLSGFVPVKSSLDQLIDDHTVMQVEYKKNHVLLYLGNILQKRRKEVTFSVEQDFVVTHPKPAPVQIYDYYETEEYAVAEYMSLCRGVVEEMG
inhibition of C-proteinase activity (in words) (C-proteinase [1]): at least partially inhibit
